Results from publication PMC5562305, “Impact of novel palmitoylated prolactin-releasing peptide analogs on metabolic changes in mice with diet-induced obesity” (PLoS ONE, 2017).
Starred links: 1 amine or outer side, 2 acyl side, 3 side chain; linkers in the order of their positions; H or OH if unused. Residues, ends and D or L forms follow the SMILES beside them. Groups on a side chain read outwards from the residue. *: point of attachment. TTDA(Palmitoyl) = CCCCCCCCCCCCCCCC(=O)NCCCOCCOCCOCCCN*; Suc = O=C(CCC(=O)[*:2])[*:1]

Test system: urinary metabolites
Assay: NMR-based metabolomics of urine of DIO mice
Format: in vivo, C57BL/6 mice
Parameters: key to DMA, Mean / DMG, Mean / MA, Mean / TMA, Mean / acetate, Mean / allantoin, Mean / carnitine, Mean / choline, Mean / cis-aconitate, Mean / creatine+creatinine, Mean / creatine, Mean / creatinine, Mean / ethanolamine, Mean / formate, Mean / galactose, Mean / glucose, Mean / glycine, Mean / lactate, Mean / succinate, Mean / vinylacetylglycine, Mean: TSA-normalized intensity of the metabolite's representative NMR signal
Details: for 2-OG (2.45 ppm), Mean / 2-OG (3.01 ppm), Mean / 2-PY (8.33 ppm), Mean / 3-indoxylsulfate (7.51 ppm), Mean / 3-indoxylsulfate (7.71 ppm), Mean / 4-PY (7.97 ppm), Mean / 4-PY (8.55 ppm), Mean / DMA, Mean / DMG, Mean / MA, Mean / MNA (8.90 ppm), Mean / MNA (8.97 ppm), Mean / MNA (9.265 ppm), Mean / MNA-Nox (7.75 ppm), Mean / MNA-Nox (8.13 ppm), Mean / MNA-Nox (8.49 ppm), Mean / MNA-Nox (8.75 ppm), Mean / N-carbamoylalanine (2.38 ppm), Mean / N-carbamoylalanine (3.31 ppm), Mean / N-isovalerylglycine + oxovalerate (0.92 ppm), Mean / TMA, Mean / acetate, Mean / allantoin, Mean / carnitine, Mean / choline, Mean / cis-aconitate, Mean / citrate (2.55 ppm), Mean / citrate (2.69 ppm), Mean / creatine+creatinine, Mean / creatine, Mean / creatinine, Mean / ethanolamine, Mean / formate, Mean / fumarate, Mean / galactose, Mean / glucose, Mean / glycine, Mean / hexanoylglycine + acids (0.88 ppm), Mean / hippurate (7.55 ppm), Mean / hippurate (7.64 ppm), Mean / hippurate (7.84 ppm), Mean / lactate, Mean / multiplet acids (1.6 ppm), Mean / putrescin, Mean / succinate, Mean / taurine (3.27 ppm), Mean / taurine (3.43 ppm), Mean / trigonelline (8.84 ppm), Mean / trigonelline (9.13 ppm), Mean / vinylacetylglycine, Mean: group mean
Description: Urine samples for NMR-based metabolomics were collected prior to the start of the interventions and at the end of the experiment. For overnight urine collection (from 5 pm to 8 am), the mice were housed in individual metabolic cages (Tecniplast, Buguggiate, Italy) without access to food. Samples were collected with the addition of NaN3 and stored at -80°C until NMR analysis.
The urine samples were thawed at room temperature and centrifuged at 13 684 x g for 5 min prior to the NMR experiments. A 200-μl aliquot of supernatant was diluted with 340 μl of H2O mixed with 60 μl of phosphate buffer (1.5 M KH2PO4 in D2O containing 2 mM NaN3 and 0.1% trimethylsilyl propionic acid (TSP), pH 7.4) and transferred to a 5-mm NMR tube. The NMR data were acquired with a 600 MHz Bruker Avance III spectrometer (Bruker BioSpin, Rheinstetten, Germany) equipped with a 5-mm TCI cryogenic probe head. All of the experiments were performed at 300 K. Automatic tuning, matching, shimming and adjusting of the 90° pulse length were performed for each sample.
As mouse urine naturally contains urinary proteins, the NMR spectra were acquired using a Carr-Purcell-Meiboom-Gill (CPMG) pulse sequence with water presaturation (Bruker pulse sequence cpmgpr1d) to eliminate the strong protein background. […] For better metabolite identification, a short J-resolved experiment with presaturation (NS = 2, SW = 16 ppm, TD = 8k, number of increments = 40, SW = 78.125 Hz in the indirect dimension, and relaxation delay = 2 s) was executed for all samples. Additional two-dimensional ^1H-^1H correlation spectroscopy (COSY) and ^1H-^13C heteronuclear multiple-quantum correlation (HMQC) experiments (Bruker pulse sequences cosygpprqf and hmqcphpr) were performed for selected samples.
The acquired data were processed using Topspin 3.2 software (Bruker BioSpin, Rheinstetten, Germany). Line broadening of 0.3 Hz was applied on free induction decays (FIDs) prior to Fourier transformation. The spectra were automatically phased, baseline corrected and referenced to the signal of TSP (0.00 ppm).
The assignment of individual metabolites was achieved by comparing the proton spectra with the spectra of pure metabolites using Chenomx NMR Suite 7.6 (Chenomx Inc., Edmonton, AB, Canada), the HMDB database and previously published metabolomic data. The identification of metabolites was supported through J-resolved and COSY experiments and, if possible, confirmed using carbon chemical shifts extracted from the HMQC spectra.
For quantitation of individual metabolites, the CPMG spectra were uniformly binned in the range of 0.10–10.00 ppm to 0.01-ppm intervals using AMIX software (Bruker BioSpin, Rheinstetten, Germany). This procedure reduced the dimensionality of the data, eliminated chemical shift variations and thus simplified the reproducible automatic quantification. Regions corresponding to water (4.60–4.90 ppm) and urea (5.60–6.00 ppm) were removed prior to analysis. As the dilutions of the original urine samples differed (due to the differences in water intake during urine collection), all of the spectra were normalized to the total spectral area (TSA). For each identified metabolite, one representative signal was chosen and then quantified as the sum of appropriate adjacent 0.01-ppm bins to cover the whole signal width. The metabolite concentration was expressed as the TSA-normalized intensity of the respective signal. For selection of an appropriate statistical method (parametric or non-parametric) the Lilliefors test of normality was performed. […] Metabolite alterations with a P < 0.05 were considered statistically significant. Statistical analysis was performed using Matlab software (“MATLAB version 8.6 (R2015b). Natick, Massachusetts: The MathWorks Inc., 2015.,” n.d.). […]

[1] = urine of DIO mice, NMR metabolomics, difference of analog mean vs saline mean
[2] = urine of DIO mice, NMR metabolomics

## CCCCCCCCCCCCCCCC(=O)NCCCOCCOCCOCCCNC(=O)CCC(=O)NCCCC[C@H](NC(=O)[C@@H](NC(=O)[C@H](CCC(=O)O)NC(=O)[C@H](CCSC)NC(=O)[C@H](CO)NC(=O)[C@H](Cc1c[nH]cn1)NC(=O)[C@H](CCCNC(=N)N)NC(=O)[C@H](Cc1c[nH]cn1)NC(=O)[C@@H](NC(=O)[C@H](CCCNC(=N)N)NC(=O)[C@@H](N)CO)[C@@H](C)O)[C@@H](C)CC)C(=O)N[C@H](C(=O)N1CCC[C@H]1C(=O)N[C@@H](CC(=O)O)C(=O)N[C@H](C(=O)N[C@@H](CC(N)=O)C(=O)N1CCC[C@H]1C(=O)N[C@@H](C)C(=O)N[C@@H](Cc1c[nH]c2ccccc12)C(=O)N[C@@H](Cc1ccc(O)cc1)C(=O)N[C@@H](C)C(=O)N[C@@H](CO)C(=O)N[C@@H](CCCNC(=N)N)C(=O)NCC(=O)N[C@H](C(=O)N[C@@H](CCCNC(=N)N)C(=O)N1CCC[C@H]1C(=O)N[C@H](C(=O)NCC(=O)N[C@@H](CCCNC(=N)N)C(=O)N[C@@H](Cc1ccccc1)C(N)=O)C(C)C)[C@@H](C)CC)[C@@H](C)CC)[C@@H](C)O [analog 2] (H-SRTHRHSMEIK([Suc-TTDA(Palmitoyl)])TPDINPAWYASRGIRPVGRF-NH2; N-terminus assumed)
Urine NMR signal, DIO mice
  2-OG (2.45 ppm), Mean: 11.956
  2-OG (3.01 ppm), Mean: 10.103
  2-PY (8.33 ppm), Mean: 0.992
  3-indoxylsulfate (7.51 ppm), Mean: 1.459
  3-indoxylsulfate (7.71 ppm), Mean: 0.842
  4-PY (7.97 ppm), Mean: 1.710
  4-PY (8.55 ppm), Mean: 0.484
  DMA, Mean: 5.145
  DMG, Mean: 1.928
  MA, Mean: 2.920
  MNA (8.90 ppm), Mean: 0.407
  MNA (8.97 ppm), Mean: 0.391
  MNA (9.265 ppm), Mean: 0.413
  MNA-Nox (7.75 ppm), Mean: 0.969
  MNA-Nox (8.13 ppm), Mean: 0.725
  MNA-Nox (8.49 ppm), Mean: 0.458
  MNA-Nox (8.75 ppm), Mean: 0.434
  N-carbamoylalanine (2.38 ppm), Mean: 10.919
  N-carbamoylalanine (3.31 ppm), Mean: 9.060
  N-isovalerylglycine + oxovalerate (0.92 ppm), Mean: 15.384
  TMA, Mean: 10.220
  acetate, Mean: 4.384
  allantoin, Mean: 21.272
  carnitine, Mean: 6.113
  choline, Mean: 2.053
  cis-aconitate, Mean: 9.014
  citrate (2.55 ppm), Mean: 31.737
  citrate (2.69 ppm), Mean: 28.801
  creatine+creatinine, Mean: 23.782
  creatine, Mean: 6.742
  creatinine, Mean: 11.494
  ethanolamine, Mean: 7.749
  formate, Mean: 0.205
  fumarate, Mean: 0.167
  galactose, Mean: 0.806
  glucose, Mean: 3.486
  glycine, Mean: 6.185
  hexanoylglycine + acids (0.88 ppm), Mean: 15.251
  hippurate (7.55 ppm), Mean: 4.857
  hippurate (7.64 ppm), Mean: 2.465
  hippurate (7.84 ppm), Mean: 5.092
  lactate, Mean: 7.122
  multiplet acids (1.6 ppm), Mean: 12.357
  putrescin, Mean: 8.544
  succinate, Mean: 12.532
  taurine (3.27 ppm), Mean: 20.714
  taurine (3.43 ppm), Mean: 17.197
  trigonelline (8.84 ppm), Mean: 0.310
  trigonelline (9.13 ppm), Mean: 0.125
  vinylacetylglycine, Mean: 3.494
[1]
  2-OG (2.45 ppm), Saline/analog %: 0.017%
  2-OG (3.01 ppm), Saline/analog %: -0.013%
  2-PY (8.33 ppm), Saline/analog %: -0.147%
  3-indoxylsulfate (7.51 ppm), Saline/analog %: 0.120%
  3-indoxylsulfate (7.71 ppm), Saline/analog %: 0.094%
  4-PY (7.97 ppm), Saline/analog %: -0.055%
  4-PY (8.55 ppm), Saline/analog %: -0.165%
  DMA, Saline/analog %: 0.025%
  N-carbamoylalanine (2.38 ppm), Saline/analog %: 0.014%
  N-carbamoylalanine (3.31 ppm), Saline/analog %: -0.045%
  N-isovalerylglycine + oxovalerate (0.92 ppm), Saline/analog %: 0.062%
  TMA, Saline/analog %: -0.159%
  acetate, Saline/analog %: 0.167%
  allantoin, Saline/analog %: 0.054%
  carnitine, Saline/analog %: 0.027%
  choline, Saline/analog %: 0.042%
  cis-aconitate, Saline/analog %: 0.015%
  citrate (2.55 ppm), Saline/analog %: -0.026%
  citrate (2.69 ppm), Saline/analog %: -0.034%
  creatine+creatinine, Saline/analog %: 0.043%
  creatine, Saline/analog %: -0.033%
  creatinine, Saline/analog %: 0.035%
  ethanolamine, Saline/analog %: -0.025%
  formate, Saline/analog %: 0.032%
  fumarate, Saline/analog %: -0.055%
  galactose, Saline/analog %: 0.041%
  glucose, Saline/analog %: -0.039%
  glycine, Saline/analog %: 0.016%
  hexanoylglycine + acids (0.88 ppm), Saline/analog %: 0.157%
  hippurate (7.55 ppm), Saline/analog %: 0.047%
  hippurate (7.64 ppm), Saline/analog %: 0.039%
  hippurate (7.84 ppm), Saline/analog %: 0.035%
  lactate, Saline/analog %: 0.156%
  multiplet acids (1.6 ppm), Saline/analog %: 0.157%
  putrescin, Saline/analog %: -0.042%
  succinate, Saline/analog %: 0.163%
  taurine (3.27 ppm), Saline/analog %: -0.196%
  taurine (3.43 ppm), Saline/analog %: -0.239%
  trigonelline (8.84 ppm), Saline/analog %: -0.008%
  trigonelline (9.13 ppm), Saline/analog %: -0.024%
  vinylacetylglycine, Saline/analog %: 0.163%
[2]
  2-OG (2.45 ppm), Mean: 11.956
  2-OG (3.01 ppm), Mean: 10.103
  2-PY (8.33 ppm), Mean: 0.992
  3-indoxylsulfate (7.51 ppm), Mean: 1.459
  3-indoxylsulfate (7.71 ppm), Mean: 0.842
  4-PY (7.97 ppm), Mean: 1.710
  4-PY (8.55 ppm), Mean: 0.484
  DMA, Mean: 5.145
  DMG, Mean: 1.928
  MA, Mean: 2.920
  MNA (8.90 ppm), Mean: 0.407
  MNA (8.97 ppm), Mean: 0.391
  MNA (9.265 ppm), Mean: 0.413
  MNA-Nox (7.75 ppm), Mean: 0.969
  MNA-Nox (8.13 ppm), Mean: 0.725
  MNA-Nox (8.49 ppm), Mean: 0.458
  MNA-Nox (8.75 ppm), Mean: 0.434
  N-carbamoylalanine (2.38 ppm), Mean: 10.919
  N-carbamoylalanine (3.31 ppm), Mean: 9.060
  N-isovalerylglycine + oxovalerate (0.92 ppm), Mean: 15.384
  TMA, Mean: 10.220
  acetate, Mean: 4.384
  allantoin, Mean: 21.272
  carnitine, Mean: 6.113
  choline, Mean: 2.053
  cis-aconitate, Mean: 9.014
  citrate (2.55 ppm), Mean: 31.737
  citrate (2.69 ppm), Mean: 28.801
  creatine+creatinine, Mean: 23.782
  creatine, Mean: 6.742
  creatinine, Mean: 11.494
  ethanolamine, Mean: 7.749
  formate, Mean: 0.205
  fumarate, Mean: 0.167
  galactose, Mean: 0.806
  glucose, Mean: 3.486
  glycine, Mean: 6.185
  hexanoylglycine + acids (0.88 ppm), Mean: 15.251
  hippurate (7.55 ppm), Mean: 4.857
  hippurate (7.64 ppm), Mean: 2.465
  hippurate (7.84 ppm), Mean: 5.092
  lactate, Mean: 7.122
  multiplet acids (1.6 ppm), Mean: 12.357
  putrescin, Mean: 8.544
  succinate, Mean: 12.532
  taurine (3.27 ppm), Mean: 20.714
  taurine (3.43 ppm), Mean: 17.197
  trigonelline (8.84 ppm), Mean: 0.310
  trigonelline (9.13 ppm), Mean: 0.125
  vinylacetylglycine, Mean: 3.494
